Assay results reported in patent US4118418A, “5-Phenenyltris (ureylene) triisophthalic acid salts” (American Cyanamid Company, priority 1977, dated 1978).
Counter-ions that a name gives are not always drawn.

Experiments:
[1] = tested on: shunt pathway activated by cobra venom factor; experiment: Test, Code 036 (C-Shunt inhibitor), lysis of human erythrocytes in autologous serum via shunt pathway; assay type: cell-based; details: Table I; two-fold serial dilutions
Source text: (§1) An active inhibitor protects C2 from C1 and C4; (ii) Test, Code O35 (C3-C9 inhibitor) -- This test determines the ability of the late components of human complement (C3-C9) to lyse EAC l42 in the presence of appropriate dilutions of the test compound. An active inhibitor protects EAC 142 from lysis by human C3-C9; (iii) Test, Code 036 (C-Shunt inhibitor) -- In this test human erythrocytes rendered fragile are lysed in autologous serum via the shunt pathway activated by cobra venom factor in the presence of appropriate dilutions of the test compound. Inhibition of the shunt pathway results in failure of lysis; (iv) Forssman Vasculitis Test -- Here, the well known complement dependent lesion, Forssman vasculitis, is produced in guinea pigs by intradermal injection of rabbit anti-Forssman antiserum. […]

activated human C1 [2] = target: T1, activated human C1 (Homo sapiens, UniProt P09871); experiment: Test, Code 026 (C1 inhibitor); assay type: biochemical; details: Table II; highest active serial dilution
Source text: as §1

activated human C1 [3] = target: T1, activated human C1; experiment: Intrinsic Therapeutic Index (Code 026 C1 inhibitor test versus anti-coagulant test); details: Table II
Source text: The computation of an Intrinsic Therapeutic Index (ITI) was devised to correlate the results expressed in wells, obtained in the in vitro Code 026 (C1 inhibitor) test and the in vitro anti-coagulant (AC) test into a meaningful value which would aid in the net evaluation of the activity of the compounds of this invention.
The ITI is thus a measure of the separation of anti-complement and anti-coagulant activities; the higher the numerical value the more therapeutically useful the separation of activities.

Citrated sheep plasma = experiment: in vitro anti-coagulant activity (AC), clotting of recalcified citrated sheep plasma; assay type: biochemical
Method: The sheep RBC's, kept in suspension throughout the clotting incubation time, become enmeshed in the fibrin matrix if a clot forms. Upon centrifugation of the plate, untrapped RBC's form buttons, the sizes of which correspond to the degree of clot inhibition; this providing a measure of anti-coagulant activity (AC). Sodium heparin is used as a positive control and activity is reported in wells appearing in Table I.
**Activity in wells a serial dilution assay. Higher well number indicates
higher activity. The serial dilutions are two-fold.

whole complement = experiment: Complement Level Reduction Test, whole complement in serum of dosed guinea pigs by capillary tube assay; assay type: in vivo; details: i.p., 200 mg/kg
Source text: An active inhibitor protects C2 from C1 and C4; (ii) Test, Code O35 (C3-C9 inhibitor) -- This test determines the ability of the late components of human complement (C3-C9) to lyse EAC l42 in the presence of appropriate dilutions of the test compound. An active inhibitor protects EAC 142 from lysis by human C3-C9; (iii) Test, Code 036 (C-Shunt inhibitor) -- In this test human erythrocytes rendered fragile are lysed in autologous serum via the shunt pathway activated by cobra venom factor in the presence of appropriate dilutions of the test compound. Inhibition of the shunt pathway results in failure of lysis; (iv) Forssman Vasculitis Test -- Here, the well known complement dependent lesion, Forssman vasculitis, is produced in guinea pigs by intradermal injection of rabbit anti-Forssman antiserum. The lesion is measured in terms of diameter, edema and hemorrhage and the extent to which a combined index of these is inhibited by prior intraperitoneal injection of the test compound at 200 mg/kg is then reported, unless otherwise stated; (v) Forssman Shock Test -- Lethal shock is produced in guinea pigs by an i.v. injection of anti-Forssman antiserum and the harmonic mean death time of treated guinea pigs is compared with that of simultaneous controls; (vi) Complement Level Reduction Test -- In this test, the above dosed guinea pigs, or others, are bled for serum and the complement level is determined in undiluted serum by the capillary tube method of U.S. Pat. No. 3,876,376 and compared to undosed control guinea pigs; and (vii) Cap 50 Test -- Here, appropriate amounts of the test compound are added to a pool of guinea pig serum in vitro, after which the undiluted serum capillary tube assay referred to above is run. The concentration of compound inhibiting 50% is reported.
With reference to Table I, guinea pigs weighing about 300 g were dosed intravenously (i.v.) or intraperitoneally (i.p.) with 200 mg/kg of the test compound dissolved in saline and adjusted to pH 7-8. […] Percent inhibition was calculated by comparison with simultaneous controls. […]

complement system = details: literature; cited from earlier work
[4] = tested on: hereditary angioneurotic edema; details: New England Journal of Medicine, 286, 808-812 (1972); cited from earlier work
[5] = tested on: human serum total hemolytic complement; details: in vitro and in vivo, reduction in total hemolytic complement activity; Pathologie Biologie, 25, 33-36 (1977); cited from earlier work

T1 sequence (P09871 16-688): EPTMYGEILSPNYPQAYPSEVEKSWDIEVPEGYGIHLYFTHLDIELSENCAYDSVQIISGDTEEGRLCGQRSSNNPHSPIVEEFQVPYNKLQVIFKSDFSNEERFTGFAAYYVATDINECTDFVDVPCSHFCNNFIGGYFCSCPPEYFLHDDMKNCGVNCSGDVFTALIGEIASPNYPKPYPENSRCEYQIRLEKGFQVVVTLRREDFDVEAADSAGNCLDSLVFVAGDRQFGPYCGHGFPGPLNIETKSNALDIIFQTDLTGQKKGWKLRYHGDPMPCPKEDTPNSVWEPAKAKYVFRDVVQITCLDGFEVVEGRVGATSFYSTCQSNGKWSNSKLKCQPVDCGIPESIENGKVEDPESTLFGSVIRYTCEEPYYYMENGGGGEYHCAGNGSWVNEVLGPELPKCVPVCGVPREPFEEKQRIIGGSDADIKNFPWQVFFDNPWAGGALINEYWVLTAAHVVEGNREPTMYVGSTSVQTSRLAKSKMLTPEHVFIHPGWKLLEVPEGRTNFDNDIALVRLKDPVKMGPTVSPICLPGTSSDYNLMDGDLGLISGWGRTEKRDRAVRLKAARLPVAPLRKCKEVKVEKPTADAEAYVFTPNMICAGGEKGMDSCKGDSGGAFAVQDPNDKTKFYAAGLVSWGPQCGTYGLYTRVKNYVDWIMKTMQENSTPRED
T1 sequence (P00736 18-705 partner): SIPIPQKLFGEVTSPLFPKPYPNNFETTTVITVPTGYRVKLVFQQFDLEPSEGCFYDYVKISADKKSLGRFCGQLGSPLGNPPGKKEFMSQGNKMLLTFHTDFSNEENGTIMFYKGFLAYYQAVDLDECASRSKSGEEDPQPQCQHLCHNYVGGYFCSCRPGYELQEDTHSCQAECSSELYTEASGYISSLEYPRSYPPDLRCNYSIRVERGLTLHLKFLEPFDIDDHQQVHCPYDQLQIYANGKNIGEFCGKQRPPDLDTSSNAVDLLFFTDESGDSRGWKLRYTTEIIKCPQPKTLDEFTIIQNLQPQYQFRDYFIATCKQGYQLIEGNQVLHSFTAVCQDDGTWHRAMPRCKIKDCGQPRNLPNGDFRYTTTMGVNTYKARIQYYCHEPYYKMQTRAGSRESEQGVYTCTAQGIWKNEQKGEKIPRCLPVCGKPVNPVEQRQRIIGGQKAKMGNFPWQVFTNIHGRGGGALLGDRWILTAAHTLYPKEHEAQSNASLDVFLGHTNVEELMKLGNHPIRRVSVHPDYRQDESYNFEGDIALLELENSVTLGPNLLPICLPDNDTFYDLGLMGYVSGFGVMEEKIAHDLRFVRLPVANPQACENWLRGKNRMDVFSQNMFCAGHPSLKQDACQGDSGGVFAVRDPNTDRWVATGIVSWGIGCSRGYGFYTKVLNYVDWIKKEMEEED
T1 sequence (P02745 23-245 partner): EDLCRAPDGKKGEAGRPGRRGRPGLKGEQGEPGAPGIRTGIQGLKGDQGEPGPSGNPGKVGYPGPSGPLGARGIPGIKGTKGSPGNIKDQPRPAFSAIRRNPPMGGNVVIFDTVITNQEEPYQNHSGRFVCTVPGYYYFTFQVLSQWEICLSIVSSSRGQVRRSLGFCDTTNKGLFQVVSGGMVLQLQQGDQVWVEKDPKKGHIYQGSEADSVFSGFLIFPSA
T1 sequence (P02746 28-253 partner): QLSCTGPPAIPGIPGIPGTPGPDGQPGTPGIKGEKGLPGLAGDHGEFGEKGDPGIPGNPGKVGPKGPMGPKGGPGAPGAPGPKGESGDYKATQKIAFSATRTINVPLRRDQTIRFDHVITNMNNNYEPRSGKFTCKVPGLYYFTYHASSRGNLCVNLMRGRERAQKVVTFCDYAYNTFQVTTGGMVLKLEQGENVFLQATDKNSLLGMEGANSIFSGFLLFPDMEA
T1 sequence (P02747 29-245 partner): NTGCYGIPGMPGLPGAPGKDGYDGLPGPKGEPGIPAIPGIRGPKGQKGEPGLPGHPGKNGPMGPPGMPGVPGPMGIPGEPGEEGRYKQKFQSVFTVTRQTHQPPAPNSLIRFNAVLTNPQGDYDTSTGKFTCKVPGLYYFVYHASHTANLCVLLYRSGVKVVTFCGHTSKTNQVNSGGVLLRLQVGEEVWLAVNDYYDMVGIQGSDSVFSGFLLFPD

O=C(Nc1cc(NC(=O)Nc2cc(C(=O)O)cc(C(=O)O)c2)cc(NC(=O)Nc2cc(C(=O)O)cc(C(=O)O)c2)c1)Nc1cc(C(=O)O)cc(C(=O)O)c1 [5,5',5"-(s-Phenenyltriureylene)triisophthalic acid hexasodium salt]
Shunt Inhibition 036 Wells [1]: +1 Wells | In Vitro Activity, Complement Inhibiting Activity (Wells) Code 026 (activated human C1 [2]): +6 Wells | Intrinsic Therapeutic Index (activated human C1 [3]; antilogarithm (base 2) of the difference in wells): 256 | Logarithmic Difference Expressed as Wells (activated human C1 [3]; log (base 2) difference Code 026 minus AC): +8 Wells | AC Wells (Citrated sheep plasma; Table I, anti-coagulant activity, two-fold serial dilutions): < -2 Wells | In Vitro Activity, Anti-Coagulant Activity (Wells) AC (Citrated sheep plasma; Table II, highest active serial dilution): -2 Wells | In Vivo Activity (Guinea Pig) % Inhibition, Intraperitoneal, 30 mins. (whole complement; 30 mins.): -43% | In Vivo Activity (Guinea Pig) % Inhibition, Intraperitoneal, 60 mins. (whole complement; 60 mins.): -9% | In Vivo Activity (Guinea Pig) % Inhibition, Intraperitoneal, 120 mins. (whole complement; 120 mins.): -41%

Cc1ccc(C(=O)Nc2ccc(S(=O)(=O)O)c3cc(S(=O)(=O)O)cc(S(=O)(=O)O)c23)cc1NC(=O)c1cccc(NC(=O)Nc2cccc(C(=O)Nc3cc(C(=O)Nc4ccc(S(=O)(=O)O)c5cc(S(=O)(=O)O)cc(S(=O)(=O)O)c45)ccc3C)c2)c1 [Suramin]
anticomplementary effect / complement inhibition (complement system): competitive inhibitor of the complement system | use in treatment of hereditary angioneurotic edema [4]: used with success

Nc1ccc2cc(S(=O)(=O)O)cc(O)c2c1N=Nc1ccc(NC(=O)Nc2ccc(N=Nc3c(N)ccc4cc(S(=O)(=O)O)cc(O)c34)c(S(=O)(=O)O)c2)cc1S(=O)(=O)O [chlorazol fast pink, 3,3'-ureylenebis-[6-(2-amino-8-hydroxy-6-sulfo-1-naphthylazo)]benzenesulfonic acid, tetrasodium salt]
anticomplementary effect / complement inhibition (complement system): anticomplementary effect

NCCCCCC(=O)O [epsilon-aminocaproic acid]
use in treatment of hereditary angioneurotic edema [4]: used with success

NC[C@H]1CC[C@H](C(=O)O)CC1 [tranexamic acid]
use in treatment of hereditary angioneurotic edema [4]: used with success

heparin
anticomplementary effect / complement inhibition (complement system): anticomplementary effect

pentosan-poly-sulfoester
anticomplementary activity on human serum [5]: anticomplementary activity on human serum both in vitro and in vivo
